One test deals with T1, hROMK1 (Kir1.1) (Homo sapiens, UniProt P48048).
T1 construct: expressed in transfected cells
T1 sequence (P48048 1-391): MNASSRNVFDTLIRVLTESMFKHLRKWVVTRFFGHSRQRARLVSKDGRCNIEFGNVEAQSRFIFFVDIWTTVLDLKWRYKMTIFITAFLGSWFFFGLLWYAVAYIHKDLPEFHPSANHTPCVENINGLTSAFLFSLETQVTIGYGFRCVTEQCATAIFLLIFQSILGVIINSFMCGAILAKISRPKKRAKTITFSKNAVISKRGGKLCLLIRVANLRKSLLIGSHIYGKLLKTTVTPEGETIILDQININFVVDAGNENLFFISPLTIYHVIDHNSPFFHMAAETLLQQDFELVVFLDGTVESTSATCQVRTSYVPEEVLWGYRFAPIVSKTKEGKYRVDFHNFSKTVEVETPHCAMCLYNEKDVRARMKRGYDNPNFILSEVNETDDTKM
As to the kind of experiment: ^86Rb^+ Efflux Assay. Format: cell-based. The settings on record: CHO-DHFR- cells stably expressing hROMK1; potency ranges.

Another test deals with T2, hROMK (hKir1.1) (Homo sapiens, UniProt P48048).
T2 construct: expressed in transfected cells
T2 sequence (P48048 1-391): T1 sequence (P48048 1-391)
As to the kind of experiment: Thallium Flux Assay (FluxOR, FLIPR-Tetra). Format: cell-based. As to conditions: HEK293 cells stably expressing hROMK; potency ranges. How it is done: Several assays may be used to measure functional inhibition of the ROMK channel by compounds of the instant invention. One primary assay that can be used is a functional ^86Rb^+ efflux assay that measures the ability of ROMK to permeate ^86Rb^+, in the absence or presence of test compound. Under control conditions, cells loaded with ^86Rb^+ and incubated in Rb^+-free medium display a time-dependent efflux of the isotope, the rate of which depends on number of functional channels. When cells are incubated in the presence of a channel inhibitor, efflux of ^86Rb^+ is prevented in a concentration-dependent manner, and IC50 values of inhibition by compounds can be accurately determined. This assay has been established with cell lines expressing either human, rat or dog ROMK channels, and can operate in 96- or 384-well format. Importantly, the human, rat, and dog ^86Rb^+ efflux assays can be carried out in the presence of up to 100% serum allowing, therefore, an accurate estimation of the effect of protein binding on the inhibitory activity of compounds of interest. Another ROMK functional assay makes use of the ability of thallium to permeate through open ROMK channels and increase the fluorescence of a dye previously loaded into the cells. Under control conditions, cells loaded with dye and exposed to thallium-containing medium display a time-dependent increase in fluorescence, the rate of which depends on number of functional channels. When cells are incubated in the presence of a channel inhibitor, the increase in fluorescence is attenuated in a concentration-dependent manner, and IC50 values of inhibition by compounds can be accurately determined. This assay has been established with cell lines expressing either human, or rat ROMK channels, and operates in 384-well format. Another assay for evaluation of the compounds of the instant invention and for evaluation of mechanism of action of compounds of Formula I relies on the measurement of the electrical current that is generated as potassium permeates through the channel. For these electrophysiological experiments, three different platforms, IonWorks, QPatch, or manual patch clamp, are used, depending on the experimental protocol under consideration. IonWorks operates in a 384-well format and allows accurate determination of IC50 values for inhibitors.
HEK293 cells stably expressing hROMK (hKir1.1) were grown at 37° C. in a 10% CO2 humidified incubator in complete growth media: Dulbecco's Modified Eagle Medium supplemented with non-essential amino acids, Penicillin/Streptomycin/Glutamine, G418 and FBS. At >80% confluency, media was aspirated from the flask and rinsed with 10 ml Calcium/Magnesium-free PBS. 5 ml of 1× trypsin (prepared in Ca/Mg Free PBS) was added to T-225 flask and flask returned to 37° C./CO2 incubator for 2-3 minutes. To dislodge the cell, the side of the flask was gently banged by hand. Cells were completely triturated and then transferred to 25 ml complete media, and centrifuged at 1,500 rpm for 6 min followed by resuspension in complete growth media and cell concentration determined. For typical re-seeding, 4E6 cells/T-225 flask attained >80% confluency in 4 days. Under ideal growth conditions and appropriate tissue culture practices, this cell line was stable for 40-45 passages.
FluxOR™ Kit Components (Invitrogen F10017)
• FluxOR™ Reagent (Component A) • FluxOR™ Assay Buffer (Component B)—10× Concentrate • PowerLoad™ Concentrate (Component C)—100× Concentrate • Probenecid (Component D)—Lyophilized sample was kept at −20° C. Water soluble, 100× after solubilization in 1 ml water. Store at 4° C. • FluxOR™ Chloride-free Buffer (Component E)—5× Concentrate • Potassium sulfate (K2SO4) Concentrate (Component F)—125 mM in water. Stored at 4° C. • Thallium sulfate (Tl2SO4) Concentrate (Component G)—50 mM in water. […]

A value given as a limit tells only on which side of the number the result lay.

As usually defined, the IC50 is the midpoint of a concentration-inhibition curve.

In the case of `Cc1c(C(O)CC2CCN(C[C@H](O)c3ccc4c(c3C)COC4=O)CC2)ccc2c1COC2=O` (stereo partly drawn) [Example 86, 5-[(1R)-1-Hydroxy-2-{4-[2-hydroxy-2-(4-methyl-1-oxo-1,3-dihydro-2-benzofuran-5-yl)ethyl]piperidin-1-yl}ethyl]-4-methyl-2-benzofuran-1(3H)-one], the IC50 is no more than 200 nM on hROMK1 (Kir1.1) and no more than 100 nM at hROMK (hKir1.1).
As to `Cc1c(CCN2CCC(NCc3ccc4c(c3)COC4=O)CC2)ccc2c1COC2=O` [Example 88, 4-Methyl-5-[2-(4-{[(1-oxo-1,3-dihydro-2-benzofuran-5-yl)methyl]amino}piperidin-1-yl)ethyl]-2-benzofuran-1(3H)-one], the IC50 on hROMK1 (Kir1.1) was no more than 200 nM; at hROMK (hKir1.1) it was no more than 100 nM.
In the same order, the values of `Cc1c(CCN2CCC(NCc3ccc4nonc4c3)CC2)ccc2c1COC2=O` [Example 89, 5-(2-{4-[(2,1,3-Benzoxadiazol-5-ylmethyl)amino]piperidin-1-yl}ethyl)-4-methyl-2-benzofuran-1(3H)-one] are no more than 500 nM and no more than 200 nM.

(Values after US9527830B2 (Merck Sharp & Dohme Corp., priority 2011, dated 2016).)
